“And” between values parts separate entries of the source, which are not always exact repeats. Identical values can stand only once.
Tests used:
[1] = tested on: Felis catus; experiment: Effect of intravenous infusion of compound on diastolic pressure in Anesthetized cats at a dose of 3 mg/kg at 20 min; format: functional
[2] = tested on: Felis catus; experiment: Effect of intravenous infusion on systolic pressure in Anesthetized cats at a dose of 0.15 mg/kg at 1 min; format: functional
[3] = tested on: Felis catus; experiment: Effect of intravenous infusion on systolic pressure in Anesthetized cats at a dose of 0.75 mg/kg at 5 min; format: functional
[4] = tested on: Felis catus; experiment: Effect of intraperitoneal infusion on diastolic pressure in Anesthetized cats at a dose of 200 mg/kg at 120 min; format: functional
[5] = tested on: Felis catus; experiment: Effect of intraperitoneal infusion on diastolic pressure in Anesthetized cats at a dose of 200 mg/kg at 15 min; format: functional
[6] = tested on: Felis catus; experiment: Effect of intraperitoneal infusion on diastolic pressure in Anesthetized cats at a dose of 200 mg/kg at 180 min; format: functional
[7] = tested on: Felis catus; experiment: Effect of intraperitoneal infusion on diastolic pressure in Anesthetized cats at a dose of 200 mg/kg at 30 min; format: functional
[8] = tested on: Felis catus; experiment: Effect of intraperitoneal infusion on diastolic pressure in Anesthetized cats at a dose of 200 mg/kg at 75 min; format: functional
[9] = tested on: Felis catus; experiment: Effect of intravenous infusion on diastolic pressure in Anesthetized cats at a dose of 0 mg/kg at 0 min; format: functional
[10] = tested on: Felis catus; experiment: Effect of intravenous infusion on diastolic pressure in Anesthetized cats at a dose of 2.25 mg/kg at 15 min; format: functional
[11] = tested on: Felis catus; experiment: Effect of intravenous infusion on systolic pressure in Anesthetized cats at a dose of 2.25 mg/kg at 15 min; format: functional
[12] = tested on: Felis catus; experiment: Effect of intraperitoneal infusion on diastolic pressure in Anesthetized cats at a dose of 200 mg/kg at 90 min; format: functional
[13] = tested on: Felis catus; experiment: Effect of intraperitoneal infusion on systolic pressure in Anesthetized cats at a dose of 200 mg/kg at 120 min; format: functional
[14] = tested on: Felis catus; experiment: Effect of intraperitoneal infusion on systolic pressure in Anesthetized cats at a dose of 200 mg/kg at 150 min; format: functional
[15] = tested on: Felis catus; experiment: Effect of intraperitoneal infusion on systolic pressure in Anesthetized cats at a dose of 200 mg/kg at 180 min; format: functional
[16] = tested on: Felis catus; experiment: Effect of intravenous infusion on respiration frequency in Anesthetized cats at a dose of 1.50 mg/kg at 10 min; format: functional; conditions: dose 1.5 mg/kg
[17] = tested on: Felis catus; experiment: Effect of intravenous infusion on respiration frequency in Anesthetized cats at a dose of 3 mg/kg at 20 min; format: functional
[18] = tested on: Felis catus; experiment: Effect of intraperitoneal infusion on respiration frequency in Anesthetized cats at a dose of 200 mg/kg at 45 min; format: functional
[19] = tested on: Felis catus; experiment: Effect on respiration frequency in Anesthetized cats at a dose of 2.25 mg/kg at 15 min; format: functional
[20] = tested on: Felis catus; experiment: Effect of intraperitoneal infusion of compound on cardiac frequency in Anesthetized cats at a dose of 200 mg/kg at 120 min; format: functional, Heart
[21] = tested on: Felis catus; experiment: Effect of intraperitoneal infusion of compound on cardiac frequency in Anesthetized cats at a dose of 200 mg/kg at 15 min; format: functional, Heart
[22] = tested on: Felis catus; experiment: Effect of intraperitoneal infusion of compound on cardiac frequency in Anesthetized cats at a dose of 200 mg/kg at 165 min; format: functional, Heart
[23] = tested on: Felis catus; experiment: Effect of intraperitoneal infusion of compound on cardiac frequency in Anesthetized cats at a dose of 200 mg/kg at 45 min; format: functional, Heart
[24] = tested on: Felis catus; experiment: Effect of intravenous infusion on cardiac frequency in Anesthetized cats at a dose of 0.15 mg/kg at 1 min; format: functional, Heart
[25] = tested on: Felis catus; experiment: Effect of intravenous infusion on cardiac frequency in Anesthetized cats at a dose of 0.75 mg/kg at 5 min; format: functional, Heart
[26] = tested on: Felis catus; experiment: Effect of intravenous infusion on cardiac frequency in Anesthetized cats at a dose of 1.50 mg/kg at 10 min; format: functional, Heart; conditions: dose 1.5 mg/kg
[27] = tested on: Felis catus; experiment: Effect of intraperitoneal infusion on respiration frequency in Anesthetized cats at a dose of 200 mg/kg at 150 min; format: functional
[28] = tested on: Felis catus; experiment: Effect of intraperitoneal infusion on respiration frequency in Anesthetized cats at a dose of 200 mg/kg at 30 min; format: functional
[29] = tested on: Felis catus; experiment: Effect of intraperitoneal infusion on diastolic pressure in Anesthetized cats at a dose of 200 mg/kg at 0 min; format: functional
[30] = tested on: Felis catus; experiment: Effect of intraperitoneal infusion on diastolic pressure in Anesthetized cats at a dose of 200 mg/kg at 105 min; format: functional
[31] = tested on: Felis catus; experiment: Effect of intraperitoneal infusion on respiration frequency in Anesthetized cats at a dose of 200 mg/kg at 75 min; format: functional
[32] = tested on: Felis catus; experiment: Effect of intraperitoneal infusion on respiration frequency in Anesthetized cats at a dose of 200 mg/kg at 18 0 min; format: functional
[33] = species: Cavia porcellus; experiment: Chronotropic activity on left and right guinea pig artia (beats/min), at 0 min; format: functional
[34] = species: Cavia porcellus; experiment: Chronotropic activity on left and right guinea pig artia (beats/min), at 120 min; format: functional
[35] = species: Cavia porcellus; experiment: Chronotropic activity on left and right guinea pig artia (beats/min), at 15 min; format: functional
[36] = species: Cavia porcellus; experiment: Chronotropic activity on left and right guinea pig artia (beats/min), at 150 min; format: functional
[37] = species: Cavia porcellus; experiment: Chronotropic activity on left and right guinea pig artia (beats/min), at 30 min; format: functional
[38] = species: Cavia porcellus; experiment: Chronotropic activity on left and right guinea pig artia (beats/min), at 60 min; format: functional
[39] = species: Cavia porcellus; experiment: Chronotropic activity on left and right guinea pig artia (beats/min), at 75 min; format: functional
[40] = species: Cavia porcellus; experiment: Effect on guinea pig artia (beats/min), at the a dose of 0 M; format: functional
[41] = species: Cavia porcellus; experiment: Effect on guinea pig artia (beats/min), at the a dose of 10e-8 M; format: functional
[42] = species: Mus musculus; experiment: Dose required to protect 50% of tested mice against experimental antithrombosis.; format: functional
[43] = species: Oryctolagus cuniculus; experiment: Effect on 35 mM K+-induced contraction on rabbit aorta at a dose of 10E-7 mol/L; format: functional
[44] = species: Oryctolagus cuniculus; experiment: Effect on 35 mM K+-induced contraction on rabbit aorta at a dose of 10E-8 mol/L; format: functional
[45] = species: Oryctolagus cuniculus; experiment: Effect on 35 mM K+-induced contraction on rabbit aorta at a dose of 10E-9 mol/L; format: functional
[46] = tested on: Felis catus; experiment: Effect of intraperitoneal infusion on respiration frequency in Anesthetized cats at a dose of 200 mg/kg at 165 min; format: functional
[47] = tested on: Felis catus; experiment: Effect of intraperitoneal infusion on systolic pressure in Anesthetized cats at a dose of 200 mg/kg at 105 min; format: functional
[48] = tested on: Felis catus; experiment: Effect of intravenous infusion on diastolic pressure in Anesthetized cats at a dose of 0.30 mg/kg at 2 min; format: functional; conditions: dose 0.3 mg/kg

## CCO/C(O)=C1\C(C)=NC(C)=C(C(=O)OCCN2C(=O)c3ccccc3S2(=O)=O)C1C (configuration not stated)
[1]
  Arterial pressure: 110 mmHg
[2]
  Arterial pressure: 165 mmHg
[3]
  Arterial pressure: 162 mmHg
[4]
  Arterial pressure: 85 mmHg
[5]
  Arterial pressure: 90 mmHg
[6]
  Arterial pressure: 80 mmHg
[7]
  Arterial pressure: 90 mmHg
[8]
  Arterial pressure: 90 mmHg
[9]
  Arterial pressure: 115 mmHg
[10]
  Arterial pressure: 110 mmHg
[11]
  Arterial pressure: 162 mmHg
[12]
  Arterial pressure: 85 mmHg
[13]
  Arterial pressure: 145 mmHg
[14]
  Arterial pressure: 140 mmHg
[15]
  Arterial pressure: 145 mmHg
[16]
  Respiratory frequency: 18 r.p.m.
[17]
  Respiratory frequency: 18 r.p.m.
[18]
  Respiratory frequency: 14 r.p.m.
[19]
  Respiratory frequency: 19 r.p.m.
[20]
  Cardiac frequency: 261 beats min-1
[21]
  Cardiac frequency: 254 beats min-1
[22]
  Cardiac frequency: 278 beats min-1
[23]
  Cardiac frequency: 245 beats min-1
[24]
  Cardiac frequency: 190 beats min-1
[25]
  Cardiac frequency: 195 beats min-1
[26]
  Cardiac frequency: 210 beats min-1
[27]
  Respiratory frequency: 15 r.p.m.
[28]
  Respiratory frequency: 13 r.p.m.
[29]
  Arterial pressure: 85 mmHg
[30]
  Arterial pressure: 87 mmHg
[31]
  Respiratory frequency: 12 r.p.m.
[32]
  Respiratory frequency: 15 r.p.m.
[33]
  Beats/min: 137
  Control: 100%
[34]
  Beats/min: 131
  Control: 95.6%
[35]
  Beats/min: 138
  Control: 100.7%
[36]
  Beats/min: 129
  Control: 94.2%
[37]
  Beats/min: 138
  Control: 100.7%
[38]
  Beats/min: 136
  Control: 99.3%
[39]
  Beats/min: 134
  Control: 97.8%
[40]
  Beats/min: 183
  Control: 100%
[41]
  Beats/min: 176
  Control: 96.3%
[42]
  ED50: 2.23 µmol/kg and 1 mg/kg
[43]
  Inhibition: 12.6%
[44]
  Inhibition: 0%
[45]
  Inhibition: 0%
[46]
  Respiratory frequency: 15 r.p.m.
[47]
  Arterial pressure: 140 mmHg
[48]
  Arterial pressure: 115 mmHg

— ChEMBL document CHEMBL1123971, “Synthesis, platelet aggregation inhibitory activity, and in vivo antithrombotic activity of new 1,4-dihydropyridines” (J Med Chem, 1988)
